This passage reports IC50 results from patent US20230027985A1, “SUBSTITUTED HYDANTOINAMIDES AS ADAMTS7 ANTAGONISTS” (Bayer Aktiengesellschaft, priority 2019, published 2023).

Where only a bound is given, the exact number is not on record here.

For assay [1], the target named is T1, ADAMTS4 (Homo sapiens, UniProt O75173).
T1 construct: purchased R&D 4307-AD
T1 sequence (O75173 213-685 limits assumed): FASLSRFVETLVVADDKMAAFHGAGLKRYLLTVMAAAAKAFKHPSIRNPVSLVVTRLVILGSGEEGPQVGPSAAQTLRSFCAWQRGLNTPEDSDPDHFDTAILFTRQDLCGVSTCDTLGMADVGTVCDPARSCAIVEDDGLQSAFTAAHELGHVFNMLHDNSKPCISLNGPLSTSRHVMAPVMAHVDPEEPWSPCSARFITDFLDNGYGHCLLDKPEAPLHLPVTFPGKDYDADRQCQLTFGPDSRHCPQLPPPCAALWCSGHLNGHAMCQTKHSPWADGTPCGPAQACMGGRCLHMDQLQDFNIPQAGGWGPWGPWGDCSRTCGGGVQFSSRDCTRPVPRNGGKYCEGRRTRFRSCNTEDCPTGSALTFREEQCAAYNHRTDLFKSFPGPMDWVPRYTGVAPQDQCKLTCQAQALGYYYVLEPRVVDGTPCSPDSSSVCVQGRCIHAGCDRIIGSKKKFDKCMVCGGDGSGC
Description: Selectivity assay for ADAMTS-7 modulators (FRET), ADAMTS4. Type of assay: biochemical. The note with it: 50 nM enzyme (R&D 4307-AD), 1 μM Dabcyl/Edans FRET substrate, 120 min at 32° C. The procedure: The respective enzyme (see table 2 below) was diluted in reaction buffer (50 mM Tris, 2.5 μM ZnCl2, 0.05% BSA, 0.001% Brij, pH 7.5 for ADAM17; 50 mM Tris 7.5, 150 mM NaCl, 10 mM CaCl2, 0.05% Brij for all other enzymes) to the respective concentration and 25 μl were transferred into each well of a 384-well white microtiter plate (Greiner Bio One 781075). 1 μl test compound solution (dissolved in DMSO, at the corresponding concentration) or pure DMSO as a control was added per well. The enzymatic reaction was initiated by addition of 25 μl of the respective concentration of the respective FRET substrate (see table 2 below) in reaction buffer. The microtiter plate was incubated for 120 min at the temperature of 32° C. The increase of fluorescence intensity was measured in appropriate fluorescence plate reader (e.g. TECAN Ultra) using the respective wavelengths for excitation and emission. IC50 values were calculated from percentage of inhibition of enzyme activity as a function of test compound concentration.

Assay [2] deals with T2, Purified recombinant ADAMTS-7 (rat prodomain/human catalytic domain, SEQ ID No. 01 or 02) (Homo sapiens, UniProt Q9UKP4).
T2 construct: rat ADAMTS-7 signal peptide + prodomain (rat 1-217, Q1EHB3) (N); 2xStrep tag (C); 6xHis tag (C); made in house; host or cells: Expi293 cells
T2 sequence (Q9UKP4 237-537): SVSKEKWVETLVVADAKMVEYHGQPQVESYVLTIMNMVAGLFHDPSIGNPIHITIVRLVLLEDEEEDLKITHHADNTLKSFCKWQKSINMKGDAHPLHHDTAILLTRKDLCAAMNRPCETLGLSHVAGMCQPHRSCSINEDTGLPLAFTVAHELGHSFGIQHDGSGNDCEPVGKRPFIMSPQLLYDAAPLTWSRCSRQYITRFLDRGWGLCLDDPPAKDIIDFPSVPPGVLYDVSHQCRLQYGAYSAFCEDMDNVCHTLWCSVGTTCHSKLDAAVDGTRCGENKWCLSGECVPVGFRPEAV
The assay is described as follows: Assay for ADAMTS-7 enzymatic activity (FRET substrate cleavage). The note with it: FRET substrate SEQ ID No. 11, 120 min at 32° C.; read-out: ADAMTS7-IC50. Type of assay: biochemical. The protocol: Purified recombinant ADAMTS-7 (as of SEQ ID No. 01 or SEQ ID No. 02) was diluted in reaction buffer (20 mM HEPES pH 8.0, 150 mM NaCl, 5 mM CaCl2, 0.004% Brij, 10 μM ZnCl2) fora concentration of approximately 20 nM. 25 μl of the solution were transferred into each well of a 384-well white microtiter plate (Greiner Bio-One 781075) and 1 μl test compound solution (modulator/inhibitor dissolved in DMSO, at the corresponding concentration) or pure DMSO as a control were added per well. […] Amino acids […] are derived from Thrombospondin-1 sequence (275-289). An additional carboxyl glutamic acid was added after the QXL520 quencher to increase substrate solubility. The microtiter plate was incubated for 120 min at the temperature of 32° C. The increase of fluorescence intensity was measured in appropriate fluorescence plate reader (e.g. TECAN Ultra) using excitation wavelength of 485 nm and emission wavelength of 520 nm. IC50 values were calculated from percentage of inhibition of ADAMTS-7 activity as a function of test compound concentration.

As to `CC(C)C1(CNC(=O)c2cnn(-c3cccc(C#N)c3)n2)NC(=O)NC1=O` (racemic) [Example 120, rac-2-(3-cyanophenyl)-N-[(4-isopropyl-2,5-dioxoimidazolidin-4-yl)methyl]-2H-1,2,3-triazole-4-carboxamide], the figures for the half-inhibitory concentration (IC50) in assay [1] and in assay [2] were 6000 nM and 170 nM, respectively.

In the case of `CC(C)C1(CNC(=O)c2cnn(-c3ccc(F)c(F)c3)n2)NC(=O)NC1=O` (racemic) [Example 122, rac-2-(3,4-difluorophenyl)-N-[(4-isopropyl-2,5-dioxoimidazolidin-4-yl)methyl]-2H-1,2,3-triazole-4-carboxamide], the IC50 came to 2500 nM in assay [1] and 11 nM in assay [2].

Turning to `CC(C)C1(CNC(=O)c2cnn(-c3ccc(Cl)c(F)c3)n2)NC(=O)NC1=O` (racemic) [Example 124, rac-2-(4-chloro-3-fluorophenyl)-N-[(4-isopropyl-2,5-dioxoimidazolidin-4-yl)methyl]-2H-1,2,3-triazole-4-carboxamide], the values for the IC50 in assay [1] and in assay [2] were 2800 nM and 13 nM, respectively.

Turning to `Cn1nccc1C1(CNC(=O)c2cnn(-c3ccc(F)cc3)n2)NC(=O)NC1=O` (racemic) [Example 127, rac-2-(4-fluorophenyl)-N-{[4-(1-methyl-1H-pyrazol-5-yl)-2,5-dioxoimidazolidin-4-yl]methyl}-2H-1,2,3-triazole-4-carboxamide], the IC50 in assay [1] is 2400 nM; in assay [2], 10 nM.

Turning to `O=C1NC(=O)C(CNC(=O)c2cnn(-c3ccc(F)cc3)n2)(c2ccnn2C(F)F)N1` (racemic) [Example 128, rac-N-({4-[1-(difluoromethyl)-1H-pyrazol-5-yl]-2,5-dioxoimidazolidin-4-yl}methyl)-2-(4-fluorophenyl)-2H-1,2,3-triazole-4-carboxamide], the figures for the half-inhibitory concentration (IC50) in assay [1] and in assay [2] were 2400 nM and 29 nM, respectively.

`CCn1nccc1C1(CNC(=O)c2cnn(-c3ccc(F)cc3)n2)NC(=O)NC1=O` (racemic) [Example 130, rac-N-{[4-(1-ethyl-1H-pyrazol-5-yl)-2,5-dioxoimidazolidin-4-yl]methyl}-2-(4-fluorophenyl)-2H-1,2,3-triazole-4-carboxamide]: the figures for the IC50 in assay [1] and in assay [2] were 2800 nM and 14 nM, respectively.

In the case of `Cc1ncsc1C1(CNC(=O)c2cnn(-c3ccc(F)cc3)n2)NC(=O)NC1=O` (racemic) [Example 131, rac-2-(4-fluorophenyl)-N-{[4-(4-methyl-1,3-thiazol-5-yl)-2,5-dioxoimidazolidin-4-yl]methyl}-2H-1,2,3-triazole-4-carboxamide], the IC50 in assay [1] was 2500 nM; in assay [2], 37 nM.

On to `O=C1NC(=O)C(CNC(=O)c2cnn(-c3ccc(F)cc3)n2)(c2ccnn2CC(F)(F)F)N1` (racemic) [Example 133, rac-N-({2,5-dioxo-4-[1-(2,2,2-trifluoroethyl)-1H-pyrazol-5-yl]imidazolidin-4-yl}methyl)-2-(4-fluorophenyl)-2H-1,2,3-triazole-4-carboxamide], for which the figures for the IC50 in assay [1] and in assay [2] were 3200 nM and 50 nM, respectively.

In the case of `O=C1NC(=O)C(CNC(=O)c2cnn(-c3ccc(F)cc3)n2)(c2ncsc2C(F)(F)F)N1` (racemic) [Example 135, rac-N-({2,5-dioxo-4-[5-(trifluoromethyl)-1,3-thiazol-4-yl]imidazolidin-4-yl}methyl)-2-(4-fluorophenyl)-2H-1,2,3-triazole-4-carboxamide], the results for the IC50 in assay [1] and in assay [2] were 6600 nM and 48 nM, respectively.

`O=C1NC(=O)C(CNC(=O)c2cnn(-c3ccc(F)cc3)n2)(c2ccccc2)N1` (racemic) [Example 139, rac-N-[(2,5-dioxo-4-phenylimidazolidin-4-yl)methyl]-2-(4-fluorophenyl)-2H-1,2,3-triazole-4-carboxamide]: the IC50 in assay [1] is over 50000 nM; in assay [2], 69 nM.

As to `Cn1ccnc1C1(CNC(=O)c2cnn(-c3ccccc3)n2)NC(=O)NC1=O` (racemic) [Example 140, rac-N-{[4-(1-methyl-1H-imidazol-2-yl)-2,5-dioxoimidazolidin-4-yl]methyl}-2-phenyl-2H-1,2,3-triazole-4-carboxamide], the IC50 in assay [1] turned out to be 360 nM; in assay [2], 4 nM.

`Cn1ccnc1C1(CNC(=O)c2cnn(-c3ccc(F)cc3)n2)NC(=O)NC1=O` (racemic) [Example 141, rac-2-(4-fluorophenyl)-N-{[4-(1-methyl-1H-imidazol-2-yl)-2,5-dioxoimidazolidin-4-yl]methyl}-2H-1,2,3-triazole-4-carboxamide]: the 50% inhibitory concentration (IC50) in assay [1] amounted to 320 nM; in assay [2] it was 4 nM.

Regarding `Cn1ccnc1C1(CNC(=O)c2cnn(-c3cc(F)c(F)c(F)c3)n2)NC(=O)NC1=O` (racemic) [Example 143, rac-N-{[4-(1-methyl-1H-imidazol-2-yl)-2,5-dioxoimidazolidin-4-yl]methyl}-2-(3,4,5-trifluorophenyl)-2H-1,2,3-triazole-4-carboxamide], the IC50 in assay [1] was 200 nM; in assay [2] it was 5 nM.

Turning to `CC1(C)CC1C1(CNC(=O)c2cnn(-c3ccccc3)n2)NC(=O)NC1=O` (racemic) [Example 150, ent-N-({4-[rac-2,2-dimethylcyclopropyl]-2,5-dioxoimidazolidin-4-yl}methyl)-2-phenyl-2H-1,2,3-triazole-4-carboxamide], the results for the IC50 in assay [1] and in assay [2] were 2000 nM and 38 nM, respectively.

With `CC1(CNC(=O)c2cnn(-c3ccc(F)cc3)n2)NC(=O)NC1=O` (racemic) [Example 152, rac-2-(4-fluorophenyl)-N-[(4-methyl-2,5-dioxoimidazolidin-4-yl)methyl]-2H-1,2,3-triazole-4-carboxamide], the IC50 is 5000 nM in assay [1] and 560 nM in assay [2].

In the case of `O=C1NC(=O)C(CNC(=O)c2cnn(-c3ccc(F)cc3)n2)(C2(F)CC2)N1` (racemic) [Example 154, rac-N-{[4-(1-fluorocyclopropyl)-2,5-dioxoimidazolidin-4-yl]methyl}-2-(4-fluorophenyl)-2H-1,2,3-triazole-4-carboxamide], the values for the IC50 in assay [1] and in assay [2] were 7900 nM and 190 nM, respectively.

As to `O=C1NC(=O)C(CNC(=O)c2cnn(-c3ccc(F)cc3)n2)(C2CC(F)(F)C2)N1` (racemic) [Example 155, rac-N-{[4-(3,3-difluorocyclobutyl)-2,5-dioxoimidazolidin-4-yl]methyl}-2-(4-fluorophenyl)-2H-1,2,3-triazole-4-carboxamide], the IC50 was over 50000 nM in assay [1] and 220 nM in assay [2].

Take `O=C1NC(=O)C(CNC(=O)c2cnn(-c3ccc(F)cc3)n2)(c2ncccc2C(F)(F)F)N1` (racemic) [Example 156, rac-N-({2,5-dioxo-4-[3-(trifluoromethyl)pyridin-2-yl]imidazolidin-4-yl}methyl)-2-(4-fluorophenyl)-2H-1,2,3-triazole-4-carboxamide]: the IC50 in assay [1] was 15000 nM; in assay [2], 59 nM.

With `Cc1nc(C2(CNC(=O)c3cnn(-c4ccc(F)cc4)n3)NC(=O)NC2=O)c(C)s1` (racemic) [Example 158, rac-N-{[4-(2,5-dimethyl-1,3-thiazol-4-yl)-2,5-dioxoimidazolidin-4-yl]methyl}-2-(4-fluorophenyl)-2H-1,2,3-triazole-4-carboxamide], the IC50 in assay [1] came out at 2800 nM; in assay [2], 100 nM.

As usually defined, the IC50 is the concentration needed to halve the response being measured.
